Read-outs that look alike come from different tables or passages of the source.
Assays:
Type in all cases: cell-based
hGCGR = target: T1, hGCGR (Homo sapiens, UniProt P47871); experiment: Functional cAMP formation (HTRF) in HEK-293 clonal cells expressing hGCGR, 0.1% bovine casein, without or with 1.0% human serum albumin; details: geometric mean
T1 construct: expressed in transfected cells
How it was run: (§1)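 Readings of the HTRF 665/620 nm ratio, which falls as cAMP rises, were converted to nM cAMP using a standard curve after 30 min peptide exposure at 37° C.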

hGLP-1R = hGLP-1R (Homo sapiens, UniProt P43220); experiment: Functional cAMP formation (HTRF) in HEK-293 clonal cells expressing hGLP-1R, 0.1% bovine casein, without or with 1.0% human serum albumin; set-up: expressed in transfected cells; details: for EC50: geometric mean
hGLP-1R, sequence (P43220 24-463): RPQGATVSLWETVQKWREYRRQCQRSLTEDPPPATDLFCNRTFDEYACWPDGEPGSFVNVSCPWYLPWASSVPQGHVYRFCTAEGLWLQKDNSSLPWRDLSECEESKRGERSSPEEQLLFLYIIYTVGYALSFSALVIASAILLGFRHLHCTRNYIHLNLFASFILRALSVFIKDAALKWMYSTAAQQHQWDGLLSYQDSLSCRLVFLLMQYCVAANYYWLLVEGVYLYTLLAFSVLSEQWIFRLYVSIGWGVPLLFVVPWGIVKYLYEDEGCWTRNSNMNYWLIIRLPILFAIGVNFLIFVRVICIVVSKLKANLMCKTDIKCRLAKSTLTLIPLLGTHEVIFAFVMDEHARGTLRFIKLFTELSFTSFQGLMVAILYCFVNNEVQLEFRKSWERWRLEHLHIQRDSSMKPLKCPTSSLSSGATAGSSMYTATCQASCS
How it was run: as §1

hGIPR = target: T2, hGIPR (Homo sapiens, UniProt P48546); experiment: Functional cAMP formation (HTRF) in HEK-293 clonal cells expressing hGIPR, 0.1% bovine casein, without or with 1.0% human serum albumin; details: for EC50: hGIPR EC50, nM (SEM, n), geometric mean
T2 construct: expressed in transfected cells
T2 sequence (P48546 22-466): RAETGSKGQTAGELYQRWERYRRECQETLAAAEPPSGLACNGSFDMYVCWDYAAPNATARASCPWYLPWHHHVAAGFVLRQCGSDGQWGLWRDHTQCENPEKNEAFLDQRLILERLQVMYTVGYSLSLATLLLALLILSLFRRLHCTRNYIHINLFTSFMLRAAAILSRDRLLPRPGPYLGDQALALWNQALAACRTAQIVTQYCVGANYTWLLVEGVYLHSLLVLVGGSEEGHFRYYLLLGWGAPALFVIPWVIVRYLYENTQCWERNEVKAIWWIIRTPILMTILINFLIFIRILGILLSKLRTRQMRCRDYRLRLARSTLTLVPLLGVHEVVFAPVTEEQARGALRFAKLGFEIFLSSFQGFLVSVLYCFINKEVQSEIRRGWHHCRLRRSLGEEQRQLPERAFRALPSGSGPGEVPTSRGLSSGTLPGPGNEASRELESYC
How it was run: as §1

[1] = hGCGR EC50, nM (SEM, n), 0.1% bovine casein and 1.0% human serum albumin, 37° C.
[2] = hGCGR EC50, nM (SEM, n), cAMP, incubated at 37° C., 0.1% bovine casein (no human serum albumin)
[3] = HEK293, read-out: hGLP-1R Emax, % ± SEM, 0.1% bovine casein and 1.0% human serum albumin, 37° C., percent of maximal response to GLP-1(7-36)NH2
[4] = HEK293, read-out: hGIPR Emax, % ± SEM, 0.1% bovine casein and 1.0% human serum albumin, 37° C., percent of maximal response to GIP(1-42)NH2

T1 sequence (P47871 26-477): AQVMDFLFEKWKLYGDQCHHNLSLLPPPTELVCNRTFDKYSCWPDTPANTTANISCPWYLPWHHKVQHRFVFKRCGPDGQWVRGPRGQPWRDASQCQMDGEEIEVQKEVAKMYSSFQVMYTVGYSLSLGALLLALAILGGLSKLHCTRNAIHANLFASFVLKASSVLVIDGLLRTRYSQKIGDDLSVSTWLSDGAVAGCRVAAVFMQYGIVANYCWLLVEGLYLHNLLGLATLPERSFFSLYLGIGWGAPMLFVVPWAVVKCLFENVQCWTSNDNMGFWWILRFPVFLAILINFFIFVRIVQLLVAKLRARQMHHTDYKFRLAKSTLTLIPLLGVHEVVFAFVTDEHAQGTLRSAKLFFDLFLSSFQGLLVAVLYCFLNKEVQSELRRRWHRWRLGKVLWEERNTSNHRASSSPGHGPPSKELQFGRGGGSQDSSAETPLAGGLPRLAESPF

CC[C@H](C)[C@H](NC(=O)[C@H](CC(C)C)NC(=O)[C@](C)(Cc1ccc(O)cc1)NC(=O)[C@@H](CCC(=O)O)NC(=O)[C@@H](NC(=O)[C@H](Cc1ccccc1)NC(=O)[C@H](CCC(=O)O)NC(=O)C1(NC(=O)[C@H](CCC(N)=O)NC(=O)[C@H](C)NC(=O)[C@H](CCCCNC(=O)COCCOCCNC(=O)COCCOCCNC(=O)CC[C@H](NC(=O)CCCCCCCCCCCCC(=O)O)C(=O)O)NC(=O)[C@H](CCCN)NC(=O)[C@H](CC(=O)O)NC(=O)[C@H](CC(C)C)NC(=O)[C@](C)(CC(C)C)NC(=O)[C@@H](NC(=O)[C@H](CO)NC(=O)[C@H](Cc2ccncc2)NC(=O)[C@H](CC(=O)O)NC(=O)[C@H](CO)NC(=O)[C@@H](NC(=O)[C@](C)(Cc2ccccc2F)NC(=O)[C@@H](NC(=O)CNC(=O)[C@H](CCC(=O)O)NC(=O)C(C)(C)NC(=O)[C@@H](N)Cc2ccc(O)cc2)[C@@H](C)O)[C@@H](C)O)[C@@H](C)CC)CCCC1)[C@@H](C)CC)C(=O)N[C@@H](CCC(=O)O)C(=O)NCC(=O)NCC(=O)N[C@@H](CCCCNC(=O)COCCOCCNC(=O)COCCOCCNC(=O)CC[C@H](NC(=O)CCCCCCCCCCCCC(=O)O)C(=O)O)C(=O)N[C@@H](CO)C(=O)N[C@@H](CO)C(=O)NCC(=O)N[C@@H](C)C(=O)N1CCC[C@H]1C(=O)N1CCC[C@H]1C(=O)N1CCC[C@H]1C(=O)N[C@@H](CO)C(N)=O [Example 170]
EC50 (hGCGR; cAMP, incubated at 37° C., 0.1% bovine casein (no human serum albumin), read-out: hGCGR EC50, nM (SEM, n)): > 9950 nM
EC50 (hGLP-1R; cAMP, incubated at 37° C., 0.1% bovine casein (no human serum albumin), read-out: hGLP-1R EC50, nM (SEM, n)): 1.03 nM
Emax (hGIPR; HEK293, percent of maximal response to GIP(1-42)NH2, 37° C., 0.1% bovine casein, arithmetic mean, read-out: hGIPR Emax, % ± SEM): 93.9%

CC[C@H](C)[C@H](NC(=O)[C@H](CCCN)NC(=O)[C@H](CC(=O)O)NC(=O)[C@H](CC(C)C)NC(=O)[C@](C)(CC(C)C)NC(=O)[C@@H](NC(=O)[C@H](CO)NC(=O)[C@H](Cc1ccncc1)NC(=O)[C@H](CC(=O)O)NC(=O)[C@H](CO)NC(=O)[C@@H](NC(=O)[C@](C)(Cc1ccccc1F)NC(=O)[C@@H](NC(=O)CNC(=O)[C@H](CCC(=O)O)NC(=O)C(C)(C)NC(=O)[C@@H](N)Cc1ccc(O)cc1)[C@@H](C)O)[C@@H](C)O)[C@@H](C)CC)C(=O)N[C@@H](C)C(=O)N[C@@H](CCC(N)=O)C(=O)NC(C)(C)C(=O)N[C@@H](CCCCNC(=O)COCCOCCNC(=O)COCCOCCNC(=O)CCCCCCCCCCCCC(=O)O)C(=O)N[C@@H](Cc1ccccc1)C(=O)N[C@H](C(=O)N[C@@H](CCCCNC(=O)COCCOCCNC(=O)COCCOCCNC(=O)CCCCCCCCCCCCC(=O)O)C(=O)N[C@@](C)(Cc1ccc(O)cc1)C(=O)N[C@@H](CC(C)C)C(=O)N[C@H](C(=O)N[C@@H](CCC(=O)O)C(=O)NCC(=O)NCC(=O)N1CCC[C@H]1C(=O)N[C@@H](CO)C(=O)N[C@@H](CO)C(=O)NCC(=O)N[C@@H](C)C(=O)N1CCC[C@H]1C(=O)N1CCC[C@H]1C(=O)N1CCC[C@H]1C(=O)N[C@@H](CO)C(N)=O)[C@@H](C)CC)[C@@H](C)CC [Example 191]
EC50 (hGCGR; [1]): > 9950 nM
EC50 (hGCGR; [2]): > 9950 nM
Emax (hGLP-1R; [3]): 105 ± 7.98%
EC50 (hGLP-1R; hGLP-1R EC50, nM (SEM, n), 0.1% bovine casein and 1.0% human serum albumin, 37° C.): 13.1 nM
Emax (hGIPR; [4]): 86.2 ± 5.5%
Emax (hGIPR; HEK293, read-out: hGIPR Emax, % ± SEM, percent of maximal response to GIP(1-42)NH2, 37° C., 0.1% bovine casein, arithmetic mean): 90 ± 3.29%
EC50 (hGIPR; 0.1% bovine casein and 1.0% human serum albumin, 37° C.): 0.866 nM

CC[C@H](C)[C@H](NC(=O)[C@H](CC(C)C)NC(=O)[C@](C)(Cc1ccc(O)cc1)NC(=O)[C@H](CCCCNC(=O)COCCOCCNC(=O)COCCOCCNC(=O)CC[C@H](NC(=O)CCCCCCCCCCCCC(=O)O)C(=O)O)NC(=O)[C@@H](NC(=O)[C@H](Cc1ccccc1)NC(=O)[C@H](CCC(=O)O)NC(=O)C(C)(C)NC(=O)[C@H](CCC(N)=O)NC(=O)[C@H](C)NC(=O)[C@H](CCCCNC(=O)COCCOCCNC(=O)COCCOCCNC(=O)CC[C@H](NC(=O)CCCCCCCCCCCCC(=O)O)C(=O)O)NC(=O)[C@H](CCCN)NC(=O)[C@H](CC(=O)O)NC(=O)[C@H](CC(C)C)NC(=O)[C@](C)(CC(C)C)NC(=O)[C@@H](NC(=O)C(C)(C)NC(=O)[C@@H](NC(=O)[C@H](CC(=O)O)NC(=O)[C@H](CO)NC(=O)[C@@H](NC(=O)[C@](C)(Cc1ccccc1F)NC(=O)[C@@H](NC(=O)CNC(=O)[C@H](CCC(=O)O)NC(=O)C(C)(C)NC(=O)[C@@H](N)Cc1ccc(O)cc1)[C@@H](C)O)[C@@H](C)O)C(C)C)[C@@H](C)CC)[C@@H](C)CC)C(=O)N[C@@H](CCC(=O)O)C(=O)NCC(=O)NCC(=O)N1CCC[C@H]1C(=O)N[C@@H](CO)C(=O)N[C@@H](CO)C(=O)NCC(=O)N[C@@H](C)C(=O)N1CCC[C@H]1C(=O)N1CCC[C@H]1C(=O)N1CCC[C@H]1C(=O)N[C@@H](CO)C(N)=O [Example 115]
EC50 (hGCGR; [2]): > 9950 nM
Emax (hGLP-1R; HEK293, read-out: hGLP-1R Emax, % ± SEM, percent of maximal response to GLP-1(7-36)NH2, 37° C., 0.1% bovine casein, arithmetic mean): 91.6%
EC50 (hGLP-1R; hGLP-1R EC50, nM (SEM, n), cAMP, incubated at 37° C., 0.1% bovine casein (no human serum albumin)): 0.16 nM
EC50 (hGIPR; cAMP, incubated at 37° C., 0.1% bovine casein (no human serum albumin)): 0.103 nM

CC[C@H](C)[C@H](NC(=O)[C@H](CCCN)NC(=O)[C@H](CC(=O)O)NC(=O)[C@H](CC(C)C)NC(=O)[C@](C)(CC(C)C)NC(=O)[C@@H](NC(=O)[C@H](CO)NC(=O)[C@H](Cc1ccc2ccccc2c1)NC(=O)[C@H](CC(=O)O)NC(=O)[C@H](CO)NC(=O)[C@@H](NC(=O)[C@](C)(Cc1ccccc1F)NC(=O)[C@@H](NC(=O)CNC(=O)[C@H](CCC(=O)O)NC(=O)C(C)(C)NC(=O)[C@@H](N)Cc1ccc(O)cc1)[C@@H](C)O)[C@@H](C)O)[C@@H](C)CC)C(=O)N[C@@H](C)C(=O)N[C@@H](CCC(N)=O)C(=O)NC(C)(C)C(=O)N[C@@H](CCC(=O)O)C(=O)N[C@@H](Cc1ccccc1)C(=O)N[C@H](C(=O)N[C@@H](CCCCNC(=O)COCCOCCNC(=O)COCCOCCNC(=O)CC[C@H](NC(=O)CCCCCCCCCOc1ccc(C(=O)O)cc1)C(=O)O)C(=O)N[C@@](C)(Cc1ccc(O)cc1)C(=O)N[C@@H](CC(C)C)C(=O)N[C@H](C(=O)N[C@@H](CCCCNC(=O)COCCOCCNC(=O)COCCOCCNC(=O)CC[C@H](NC(=O)CCCCCCCCCOc1ccc(C(=O)O)cc1)C(=O)O)C(=O)NCC(=O)NCC(=O)N1CCC[C@H]1C(=O)N[C@@H](CO)C(=O)N[C@@H](CO)C(=O)NCC(=O)N[C@@H](C)C(=O)N1CCC[C@H]1C(=O)N1CCC[C@H]1C(=O)N1CCC[C@H]1C(=O)N[C@@H](CO)C(N)=O)[C@@H](C)CC)[C@@H](C)CC [Example 283]
EC50 (hGCGR; [1]): > 9950 nM
EC50 (hGCGR; hGCGR EC50, nM (SEM, n), cAMP, 37° C., 0.1% bovine casein (no human serum albumin)): > 9950 nM
Emax (hGLP-1R; [3]): 96.6%
EC50 (hGLP-1R; hGLP-1R EC50, nM (SEM, n), cAMP, 37° C., 0.1% bovine casein (no human serum albumin)): 1.14 nM
Emax (hGIPR; [4]): 114%

Source: patent US20230265151A1, “GIP/GLP1 CO-AGONIST COMPOUNDS” (priority 2020, published 2023)
